Experimental data as given in US7276502B2, “Thiazoles useful as inhibitors of protein kinases” (Vertex Pharmaceuticals Incorporated, priority 2003, dated 2007).
Where two headings read alike, the source gives them in different places.

What was measured:
ZAP-70 = target: T1, ZAP-70 (Homo sapiens, UniProt P43403); experiment: ZAP-70 inhibition assay (standard coupled enzyme assay); assay type: biochemical; details: 100 μM ATP, 20 μM poly-4EY peptide, 30° C., 60 nM ZAP-70
T1 sequence (P43403 1-619): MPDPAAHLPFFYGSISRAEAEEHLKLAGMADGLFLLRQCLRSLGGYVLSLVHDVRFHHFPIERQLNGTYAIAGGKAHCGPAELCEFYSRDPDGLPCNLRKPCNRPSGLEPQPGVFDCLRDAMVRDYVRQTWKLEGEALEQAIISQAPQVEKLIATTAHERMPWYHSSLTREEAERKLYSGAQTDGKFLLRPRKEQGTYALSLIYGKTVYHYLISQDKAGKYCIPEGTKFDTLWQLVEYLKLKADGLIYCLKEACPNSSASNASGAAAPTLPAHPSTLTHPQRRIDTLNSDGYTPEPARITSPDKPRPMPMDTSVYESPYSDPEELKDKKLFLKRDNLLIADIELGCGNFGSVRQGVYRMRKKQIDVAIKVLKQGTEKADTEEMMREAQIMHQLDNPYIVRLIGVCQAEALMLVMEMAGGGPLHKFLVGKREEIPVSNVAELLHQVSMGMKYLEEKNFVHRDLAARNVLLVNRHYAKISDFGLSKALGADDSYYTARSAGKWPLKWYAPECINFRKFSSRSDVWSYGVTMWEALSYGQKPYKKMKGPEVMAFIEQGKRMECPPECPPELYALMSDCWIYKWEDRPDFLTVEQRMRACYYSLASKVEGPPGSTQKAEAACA
Procedure: Compounds were screened for their ability to inhibit ZAP-70 using a standard coupled enzyme assay (Fox et al., Protein Sci. 1998, 7, 2249). Assays were carried out in a mixture of 100 mM HEPES (pH 7.5), 10 mM MgCl2, 25 mM NaCl, 2 mM DTT and 3% DMSO. Final substrate concentrations in the assay were 100 μM ATP (Sigma Chemicals) and 20 μM peptide (poly-4EY, Sigma Chemicals). Assays were carried out at 30° C. and 60 nM ZAP-70. Final concentrations of the components of the coupled enzyme system were 2.5 mM phosphoenolpyruvate, 300 μM NADH, 30 μg/ml pyruvate kinase and 10 μg/ml lactate dehydrogenase.
An assay stock buffer solution was prepared containing all of the reagents listed above, with the exception of ZAP-70 and the test compound of interest of the present invention. 55 μl of the stock solution was placed in a 96 well plate followed by addition of 2 μl of DMSO stock containing serial dilutions of the test compound of the present invention (typically starting from a final concentration of 15 μM). The plate was preincubated for 10 minutes at 30° C. and the reaction initiated by addition of 10 μl of enzyme (final concentration 60 nM). Initial reaction rates were determined with a Molecular Devices SpectraMax Plus plate reader over a 15 minute time course. Ki data was calculated from non-linear regression analysis using the Prism software package (GraphPad Prism version 3.0a for Macintosh, GraphPad Software, San Diego Calif., USA).

SYK = SYK (Homo sapiens, UniProt P43405); experiment: SYK inhibition assay (standard coupled enzyme assay); assay type: biochemical
Procedure: Reactions were carried out in 100 mM HEPES (pH 7.5), 10 mM MgCl2, 25 mM NaCl, 1 mM DTT and 1.5% DMSO. Final substrate concentrations in the assay were 200 μM ATP (Sigma chemical Co.) and 4 μM poly Gly-Tyr peptide (Sigma Chemical Co.). Assays were carried out at 30° C. and 200 nM SYK. Final concentrations of the components of the coupled enzyme system were 2.5 mM phosphoenolpyruvate, 300 μM NADH, 30 μg/ml pyruvate kinase and 10 μg/ml lactate dehydrogenase.
An assay stock buffer solution was prepared containing all of the reagents listed above, with the exception of SYK, DTT, and the test compound of interest of the present invention. 56 μl of the test reaction was placed in a 96 well plate followed by the addition of 1 μl of 2 mM DMSO stock containing the test compound of the present invnetion (final compound concentration 30 μM).

[1] = coupled enzyme assay, 200 μM ATP, 4 μM poly Gly-Tyr peptide, 30° C., read-out: Ki (SYK)

Ki (ZAP-70) [µM]	Ki (SYK; [1]) [µM]	Ki (SYK) [µM]	SMILES
≤ 5	≤ 5	–	CCn1c2ccccc2c2cc(Nc3nccc(-c4ncc(C)s4)n3)ccc21 [Example I-26]
≤ 5	–	≤ 5	COc1cc(Nc2nccc(-c3nc(CO)cs3)n2)cc(C(F)(F)F)c1 [Example I-84]
≤ 5	≤ 5	–	Cc1cnc(-c2ccnc(Nc3cccc(CC#N)c3)n2)s1 [Example I-38]
≤ 5	≤ 5	–	CC(=O)OCc1cnc(-c2ccnc(Nc3cc(C)cc(C)c3)n2)s1 [Example I-72]
≤ 5	≤ 5	–	Cc1cnc(-c2ccnc(Nc3ccc4c(c3)CCN4S(C)(=O)=O)n2)s1 [Example I-20]
≤ 5	≤ 5	–	CCN(CC)CCCNCc1cnc(-c2ccnc(Nc3cc(C)cc(C)c3)n2)s1 [Example I-45]
≤ 5	≤ 5	–	Cc1cc(C)cc(Nc2nccc(-c3nc(COC(N)=O)cs3)n2)c1 [Example I-77]
≤ 5	≤ 5	–	Cc1cnc(-c2ccnc(Nc3ccc(NC(=O)CCNC(=O)OC(C)(C)C)cc3)n2)s1 [Example I-153]
≤ 5	≤ 5	–	CNC(=O)c1cnc(-c2ccnc(Nc3cc(C)cc(C)c3)n2)s1 [Example I-115]
≤ 5	≤ 5	–	Cc1cnc(-c2ccnc(Nc3cccc(S(=O)(=O)c4cccc(N)c4)c3)n2)s1 [Example I-6]
≤ 5	≤ 5	–	Cc1cnc(-c2ccnc(Nc3cc(O)cc(C(F)(F)F)c3)n2)s1 [Example I-109]
≤ 5	≤ 5	–	Cc1cnc(-c2ccnc(Nc3cccc(C#N)c3)n2)s1 [Example I-90]
≤ 5	≤ 5	–	Cc1cnc(-c2ccnc(Nc3ccccc3)n2)s1 [Example I-49]
≤ 5	≤ 5	–	COc1cccc(Nc2nccc(-c3ncc(C)s3)n2)c1 [Example I-27]
≤ 5	≤ 5	–	COc1ccc(Nc2nccc(-c3ncc(C)s3)n2)cc1OC [Example I-2]
≤ 5	≤ 5	–	Cc1cc(C)cc(Nc2nccc(-c3nc(CBr)cs3)n2)c1 [Example I-64]
≤ 5	≤ 5	–	Cc1cc(C)cc(Nc2nccc(-c3ncc(CNc4ccncc4)s3)n2)c1 [Example I-125]
≤ 5	≤ 5	–	Cc1cnc(-c2ccnc(Nc3ccc4c(c3)CCC4)n2)s1 [Example I-50]
≤ 5	≤ 5	–	Cc1cnc(-c2ccnc(Nc3ccc(-n4cncn4)cc3)n2)s1 [Example I-23]

Ki (ZAP-70) [µM]	Ki (SYK; [1]) [µM]	Ki (SYK) [µM]	SMILES
≤ 5	≤ 5	–	COc1ccc(Nc2nccc(-c3ncc(C)s3)n2)cc1 [Example I-28]
≤ 5	≤ 5	–	Cc1cc(C)cc(Nc2nccc(-c3ncc(C(=O)Nc4ccccc4)s3)n2)c1 [Example I-137]
≤ 5	≤ 5	–	CC(=O)Nc1cccc(Nc2nccc(-c3ncc(C)s3)n2)c1 [Example I-78]
≤ 5	≤ 5	–	Cc1cnc(-c2ccnc(Nc3ccc(C(C)(C)C)cc3)n2)s1 [Example I-120]
≤ 5	≤ 5	–	CC(=O)OCc1cnc(-c2ccnc(Nc3ccccc3OCc3ccccc3)n2)s1 [Example I-149]
≤ 5	≤ 5	–	Cc1cnc(-c2ccnc(Nc3ccccc3Oc3ccccc3)n2)s1 [Example I-95]
≤ 5	≤ 5	–	Cc1cnc(-c2ccnc(Nc3ccc(Nc4ccccc4)cc3)n2)s1 [Example I-12]
≤ 5	≤ 5	–	COCc1csc(-c2ccnc(Nc3cc(C)cc(C)c3)n2)n1 [Example I-66]
≤ 5	≤ 5	–	COc1ccc(Nc2nccc(-c3ncc(C)s3)n2)cc1O [Example I-17]
≤ 5	≤ 5	–	Cc1cc(C)cc(Nc2nccc(-c3ncc(C(=O)NCCN)s3)n2)c1 [Example I-138]
≤ 5	≤ 5	–	OCc1cnc(-c2ccnc(Nc3cc(O)cc(C(F)(F)F)c3)n2)s1 [Example I-144]
≤ 5	≤ 5	–	COc1cc(Nc2nccc(-c3ncc(N4CCNCC4)s3)n2)cc(OC)c1OC [Example I-145]
≤ 5	≤ 5	–	COCc1cc(=O)oc2cc(Nc3nccc(-c4ncc(C)s4)n3)ccc12 [Example I-22]
≤ 5	≤ 5	–	Cc1cnc(-c2ccnc(Nc3ccc4[nH]ccc4c3)n2)s1 [Example I-31]
≤ 5	≤ 5	–	Cc1cnc(-c2ccnc(Nc3ccc(C)c(Br)c3)n2)s1 [Example I-8]
≤ 5	–	≤ 5	Cc1cc(C)cc(Nc2nccc(-c3nc(C)c(CCO)s3)n2)c1 [Example I-123]
≤ 5	≤ 5	–	Cc1cnc(-c2ccnc(Nc3cccc(CO)c3)n2)s1 [Example I-111]
≤ 5	≤ 5	–	Cc1cnc(-c2ccnc(Nc3ccc(F)cc3F)n2)s1 [Example I-97]
≤ 5	≤ 5	–	CCCc1ccccc1Nc1nccc(-c2ncc(C)s2)n1 [Example I-103]

Ki (ZAP-70) [µM]	Ki (SYK; [1]) [µM]	Ki (SYK) [µM]	SMILES
≤ 5	≤ 5	–	Cc1cnc(-c2ccnc(Nc3ccc4[nH]nnc4c3)n2)s1 [Example I-128]
≤ 5	≤ 5	–	Cc1cc(C)cc(Nc2nccc(-c3nc(C)c(CCOC4CCCCO4)s3)n2)c1 (stereo not drawn) [Example I-119]
≤ 5	≤ 5	–	Cc1cnc(-c2ccnc(Nc3ccc(N4CCN(Cc5ccccc5)CC4)cc3)n2)s1 [Example I-7]
≤ 5	≤ 5	–	Cc1cc(C)cc(Nc2nccc(-c3ncc(CN(C)C)s3)n2)c1 [Example I-44]
≤ 5	≤ 5	–	CC(=O)c1cccc(Nc2nccc(-c3ncc(C)s3)n2)c1 [Example I-30]
≤ 5	≤ 5	–	Cc1cnc(-c2ccnc(Nc3cccc(C(N)=O)c3)n2)s1 [Example I-15]
≤ 5	≤ 5	–	Cc1cnc(-c2ccnc(Nc3ccc(N)cc3)n2)s1 [Example I-140]
≤ 5	≤ 5	–	Cc1cnc(-c2ccnc(Nc3ccc4cn[nH]c4c3)n2)s1 [Example I-9]
≤ 5	≤ 5	–	Cc1cnc(-c2ccnc(Nc3ccc([N+](=O)[O-])cc3)n2)s1 [Example I-79]
≤ 5	≤ 5	–	COc1ccc(Nc2nccc(-c3ncc(C)s3)n2)cc1F [Example I-5]
≤ 5	≤ 5	–	Cc1cnc(-c2ccnc(Nc3ccc4[nH]nc(C)c4c3)n2)s1 [Example I-136]
≤ 5	≤ 5	–	OCc1csc(-c2ccnc(Nc3cccc(OCc4ccccc4)c3)n2)n1 [Example I-73]
≤ 5	≤ 5	–	CCN(CC)Cc1cc(Nc2nccc(-c3ncc(C)s3)n2)ccc1O [Example I-10]
≤ 5	≤ 5	–	CSc1ccc(Nc2nccc(-c3ncc(C)s3)n2)cc1 [Example I-131]
≤ 5	≤ 5	–	Cc1cc(C)cc(Nc2nccc(-c3ncc(CN(C)CCO)s3)n2)c1 [Example I-87]
≤ 5	≤ 5	–	Cc1cnc(-c2ccnc(Nc3ccc4c(c3)OCCCO4)n2)s1 [Example I-4]
≤ 5	≤ 5	–	CC(=O)c1ccc(Nc2nccc(-c3ncc(C)s3)n2)cc1 [Example I-116]
≤ 5	≤ 5	–	Cc1cc(C)cc(Nc2nccc(-c3ncc(N4CCNCC4)s3)n2)c1 [Example I-93]
≤ 5	≤ 5	–	Cc1cc(C)cc(Nc2nccc(-c3ncc(Br)s3)n2)c1 [Example I-71]
